In assay [1] the target is T1, PAF Binding, dog platelets (Canis lupus familiaris, UniProt A0A8I3NSH0).
T1 construct: Washed platelets were prepared by resuspending the platelet pellet once with PBS containing 1 mM EDTA; from tissue; host or cells: washed platelets from dog blood
T1 sequence (A0A8I3NSH0 1-343): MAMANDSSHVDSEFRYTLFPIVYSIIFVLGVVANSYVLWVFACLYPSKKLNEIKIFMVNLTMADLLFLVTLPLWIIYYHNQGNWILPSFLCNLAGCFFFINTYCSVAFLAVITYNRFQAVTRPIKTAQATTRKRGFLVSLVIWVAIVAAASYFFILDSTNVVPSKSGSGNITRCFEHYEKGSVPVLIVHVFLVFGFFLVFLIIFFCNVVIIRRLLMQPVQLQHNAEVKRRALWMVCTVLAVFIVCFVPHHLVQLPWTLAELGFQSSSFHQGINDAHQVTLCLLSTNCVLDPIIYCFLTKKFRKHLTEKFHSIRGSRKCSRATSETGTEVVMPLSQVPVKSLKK
In words: PAF Binding Assay (inhibition of 3H-PAF binding to washed dog platelets). To be noted: dog platelets, 3H-PAF, 10 minutes at room temperature; read-out: Inhib of PAF Binding IC50. Here is the method: The binding assay was done in 400 μl polyethylene microcentrifuge tubes (Beckman) containing 50 μl of an oil mixture of 2 parts Siliconol AR200 (Serva): 1 part Silicone Fluid (Arthur H. Thomas). Buffer, standards, or analogs (150 μl total volume) were added to the tubes. Radiolabelled ^3 H-PAF (50 μl) was then added to the tubes. The reaction was started by the addition of 50 μl of dog platelets (2×10^7 platelets). The tubes were capped, inverted several times to mix, and incubated for 10 minutes at room temperature. The platelets were separated from the incubation mixture by centrifuging 1 minute in a Beckman Microfuge B centrifuge. The tip of the microfuge tube was cut off, and the platelets were washed out of the tip with 200 μl of 50% methanol (Burdick and Jackson). Aquasol (NEN, 10 ml) was added and the radioactivity in the samples was determined using an LS 8100 Beckman liquid scintillation counter linked to a Techtran tape recorder. Data was processed through an in-house computer system. Alternatively, radioactivity was determined using a Searle Mark III liquid scintillation counter linked to a Iso-Data microprocessor.
(b) Preparation of Platelets
Blood was collected from anesthesized or unanesthesized dogs into 50 ml plastic centrifuge tubes containing 3.8% sodium citrate as the anticoagulant (1 volume of citrate/9 volumes of blood). The red cells were removed by centrifugation for 15 minutes at 600 rpm (100-125 g) at room temperature. An aliquot of the supernatant platelet rich plasma (PRP) was saved for cell counting and the remainder was acidified to PH 6.5 with 0.15M citric acid. The platelet pellet was obtained after a 10 minute centrifugation at 2000 rpm (1000 g) at room temperature. Washed platelets were prepared by resuspending the platelet pellet once with PBS containing 1 mM EDTA, centrifuging as noted, and then resuspending the platelets in 0.1% BSA-PBS. An aliquot of the washed platelets was counted. Platelets used for binding assays were diluted to 2×10^7 platelets/assay tube (4×10^8 platelets/ml). Platelet counting was done using a Royco Cell-Crit 921.

The subject of assay [2] is PAF-Induced Bronchoconstriction. In words: PAF Induced Bronchoconstriction Assay. Format: in vivo, guinea pig. To be noted: for inhibition in vivo at 50 mg/kg: Cavia porcellus, po, 2-hour pretreatment, read-out: Percent Inhib. of PAF-Induced Bronchoconstriction, 50 mg/Kg p.o.; for Percent Inhib. of PAF-Induced Bronchoconstriction, mg/Kg i.v.: i.v. (dose not given), 1 minute pretreatment, PAF 1.0 μg/kg i.v. Here is the method: PAF Induced Bronchoconstriction Assay
Male animals (Hartlet Strain 400-500 g) were anesthetized with urethane (2 g/kg. i.p.). Each animals' trachea was cannulated and the guinea pigs were repirated using a Harvard small animal rodent respirator (3.0 cc stroke volume, 40 breaths per min.). Tracheal pressure was recorded from a cannula inserted in the trachea and connected to a Statham Pressure Transducer.
The jugular vein was cannulated for administering compounds. Spontaneous breathing was arrested with succinylcholine (1.2 mg/kg. i.v.) administered 2 minutes prior to intravenous injection of platelet activating factor (PAF).
For, the intravenous testing, the guinea pig is given a 5-minute pretreatment with propranolol at a dose of 0.1 mg/kg intravenously. The test compound is administered with a 1 minute pretreatment prior to intravenous challenge with PAF. The animal is than challenged with a 1.0 μg/kg intravenous dose of PAF and the change is tracheal pressure is measured.
For the oral testing, the procedure includes a 2-hour pretreatment period with the test compound administered through an oral gavage tube. Propranolol or succinylcholine and PAF are administered intravenously, and the change in tracheal pressure measured.
The change is tracheal pressure is determined by subtracting the steady state baseline achieved after administration of succinylcholine from the peak bronchoconstriction seen after challenge with PAF. The mean is calculated for each test compound and compared to the mean of the control animals to give the percent inhibition of bronchoconstriction. The standard error is calcuated as the standard error of the mean.

The values that follow come from patent publication US4788206A, “Pentadieneamides” (Hoffmann-La Roche Inc., priority 1987, dated 1988).

Regarding `COc1ccc(/C(=C\C=C\C(=O)NCCCCc2cccnc2)c2cccnc2)cc1` [(E,E)-5-(4-methoxyphenyl)-5-(3-pyridinyl)-N-[4-(3-pyridinyl)butyl]-2,4-pentadienamide], in assay [1], the 50% inhibitory concentration (IC50) is 25 nM. For the same compound, in assay [2] (50 mg/Kg p.o.), the inhibition in vivo at 50 mg/kg stood at 85 ± 8%. Further, the “Percent Inhib. of PAF-Induced Bronchoconstriction, mg/Kg i.v.” value in assay [2] is 97 ± 0.6%.
Turning to `CCCCC/C(=C\C=C\C(=O)NCCCCc1cccnc1)c1ccc(OC)cc1` [(E,E)-5-(4-methoxyphenyl)-N-[4-(3-pyridinyl)butyl]-2,4-decadienamide], the concentration for half-maximal inhibition (IC50) in assay [1] was 15 nM. The inhibition in vivo at 50 mg/kg in assay [2] (50 mg/Kg p.o.) was found to be 26 ± 2%. In addition, the “Percent Inhib. of PAF-Induced Bronchoconstriction, mg/Kg i.v.” value in assay [2] stood at 99 ± 1%.
Consider `CCCCC/C(=C/C=C/C(=O)N[C@H](C)CCCc1cccnc1)c1cccc(F)c1` [[R-(2E,4Z)]-5-(3-fluorophenyl)-N-[1-methyl-4-(3-pyridinyl)butyl]-2,4-decadienamide], for which, in assay [1], the IC50 is 105 nM. The “Percent Inhib. of PAF-Induced Bronchoconstriction, mg/Kg i.v.” value in assay [2] was determined as 93 ± 1%.
Turning to `COc1ccc(/C(=C\C=C\C(=O)N[C@H](C)CCCc2cccnc2)C(C)C)cc1` [[R-(2E,4Z)]-5-(4-methoxyphenyl)-6-methyl-N-[1-methyl-4-(3-pyridinyl)butyl]-2,4-heptadienamide], the IC50 in assay [1] was determined as 40 nM. The inhibition in vivo at 50 mg/kg in assay [2] (50 mg/Kg p.o.) came out at 71 ± 14%. In assay [2], the “Percent Inhib. of PAF-Induced Bronchoconstriction, mg/Kg i.v.” value was found to be 89 ± 3%.
Take `COc1ccc(/C(=C/C=C/C(=O)N[C@H](C)CCCc2cccnc2)c2cccs2)cc1` [[R-(2E,4Z)]-5-(4-methoxyphenyl)-N-[1-methyl-4-(3-pyridinyl)butyl]-5-(2-thienyl)-2,4-pentadienamide]: in assay [1], the IC50 worked out at 16 nM. Besides, in assay [2] (50 mg/Kg p.o., (6 hr)), the “Percent Inhib. of PAF-Induced Bronchoconstriction, 50 mg/Kg p.o. (6 hr)” value came to 27 ± 6%. Besides, the inhibition in vivo at 50 mg/kg in assay [2] (50 mg/Kg p.o.) amounted to 96 ± 2%. For the same compound, in assay [2], the “Percent Inhib. of PAF-Induced Bronchoconstriction, mg/Kg i.v.” value was found to be 97 ± 1%.
With `COc1ccc(/C(=C\C=C\C(=O)N[C@H](C)CCCc2cccnc2)C2CC2)cc1` [[R-(2E,4Z)]-5-cyclopropyl-5-(4-methoxyphenyl)-N-1-methyl-4-(3-pyridinyl)butyl]-2,4-pentadienamide], the concentration for half-maximal inhibition (IC50) in assay [1] was 70 nM. Also, the inhibition in vivo at 50 mg/kg in assay [2] (50 mg/Kg p.o.) is 63 ± 19%. Further, the “Percent Inhib. of PAF-Induced Bronchoconstriction, mg/Kg i.v.” value in assay [2] worked out at 85 ± 4%.
With `COc1ccc(C(=C/C=C/C(=O)N[C@H](C)CCCc2cccnc2)c2ccc(OC)c(OC)c2)cc1OC` [[R-(E)]-5,5-bis(3,4-dimethoxyphenyl)-N-[1-methyl-4-(3-pyridinyl)butyl]-2,4-pentadienamide], the IC50 in assay [1] is 50 nM. Besides, the inhibition in vivo at 50 mg/kg in assay [2] (50 mg/Kg p.o.) is 66 ± 19%. For the same compound, in assay [2], the “Percent Inhib. of PAF-Induced Bronchoconstriction, mg/Kg i.v.” value was 99 ± 1%.
In the case of `Cc1ccc(C(=C/C=C/C(=O)N[C@H](C)CCCc2cccnc2)c2ccc(C)cc2)cc1` [[R-(E)]-5,5-bis(4-methylphenyl)-N-[1-methyl-4-(3-pyridinyl)butyl]-2,4-pentadienamide], the IC50 in assay [1] stood at 250 nM. In assay [2] (50 mg/Kg p.o.), the “Percent Inhib. of PAF-Induced Bronchoconstriction, 50 mg/Kg p.o. (8 hr)” value was 14 ± 16% and the inhibition in vivo at 50 mg/kg is 91 ± 7%. Further, the “Percent Inhib. of PAF-Induced Bronchoconstriction, mg/Kg i.v.” value in assay [2] amounted to 97 ± 3%.
On the same counts, the results for `CC[C@H](CCCc1cccnc1)NC(=O)/C=C/C=C(c1ccc(OC)cc1)c1ccc(OC)cc1` [[R-(E)]-N-[1-ethyl-4-(3-pyridinyl)butyl]-5,5-bis(4-methoxyphenyl)-2,4-pentadienamide] are 120 nM, 85 ± 12%, 99 ± 1% and 99 ± 0.4%.
Take `CCCCCC(=C/C=C/C(=O)N[C@H](C)CCCc1cccnc1)CCCCC` [[R-(E)]-N-[1-methyl-4-(3-pyridinyl)butyl]-5-pentyl-2,4-decadienamide]: the concentration for half-maximal inhibition (IC50) in assay [1] was 100 nM. Moreover, the inhibition in vivo at 50 mg/kg in assay [2] (50 mg/Kg p.o.) worked out at 4 ± 4%. Also, the “Percent Inhib. of PAF-Induced Bronchoconstriction, mg/Kg i.v.” value in assay [2] turned out to be 78 ± 7%.

For orientation: IC50 means the concentration at which inhibition is half-maximal.
